pIC50: −log10 of the molar value. The source made the active and inactive calls. The calls are words filed in the database; no cut-off is given here.
Tests used:
[1] = system: Mus musculus; experiment: Antiinflammatory activity in Swiss albino mouse assessed as inhibition of carrageenan-induced paw edema at 200 mg/kg,po pretreated for 1 hr followed by carrageenan administration measured after 4 hrs relative to control; format: functional; conditions: time 5 hrs
[2] = system: Mus musculus; experiment: Antiinflammatory activity in Swiss albino mouse assessed as inhibition of carrageenan-induced paw edema at 200 mg/kg,po pretreated for 1 hr followed by carrageenan administration measured after 6 hrs relative to control; format: functional; conditions: time 7 hrs
[3] = system: Plasmodium falciparum; experiment: Antimalarial activity against asynchronous chloroquine-sensitive Plasmodium falciparum 3D7 assessed as parasite growth inhibition infected in erythrocytes incubated for 72 hrs by SYBR green dye based assay; format: functional, organism-based; conditions: 3D7, 72 h
[4] = system: THP-1; experiment: Antiinflammatory activity against human THP-1 cells assessed as inhibition of LPS-induced TNFalpha level at 10 uM incubated for 12 to 14 hrs followed by compound replenishment for 1 hr and subsequent LPS treatment for 4 hrs by ELISA assay (reference value: 93.43 %); format: functional; design: scale not given: the % may be the effect or the level left; conditions: time 17-19 hrs
[5] = system: HEK-293T; experiment: Antiinflammatory activity against HEK293T cells assessed as fold increase in TNFalpha-induced NF-kappaB activity at 10 uM incubated for 1 hr followed by TNFalpha treatment for 5 hrs by luciferase based assay (reference value: 17.1); format: functional, Homo sapiens
[6] = system: THP-1; experiment: Cytotoxicity against LPS-stimulated human THP-1 cells assessed as cell viability at 10 uM incubated for 12 hrs followed by LPS treatment measured after 4 hrs by PI staining based flow cytometry; format: functional; conditions: time 16.0 hrs
[7] = system: Plasmodium falciparum; experiment: Antimalarial activity against asynchronous chloroquine-resistant Plasmodium falciparum K1 assessed as parasite growth inhibition infected in erythrocytes incubated for 72 hrs by SYBR green dye based assay; format: functional, organism-based; conditions: K1, 72 h
[8] = Cytotoxicity against African green monkey Vero cells incubated for 3 days by fluorescence based assay; format: toxicity, cell-based; conditions: chlorocebus sabaeus, time 3 day
[9] = system: Plasmodium yoelii; experiment: Antimalarial activity against chloroquine-resistant Plasmodium yoelii N67 infected in Swiss mouse assessed as parasite growth suppression at 100 mg/kg/day, po for 4 days measured on day 4 relative to control; format: functional; conditions: time 4 day
[10] = system: Plasmodium yoelii; experiment: Antimalarial activity against chloroquine-resistant Plasmodium yoelii N67 infected in Swiss mouse assessed as parasite growth suppression at 100 mg/kg/day, po for 4 days measured on day 7 relative to control; format: functional; conditions: time 7 day
[11] = Toxicity in Swiss mouse infected with chloroquine-resistant Plasmodium yoelii N67 assessed as mean survival time at 100 mg/kg/day, po for 4 days (reference value: 7.2 +/- 1.3 day); format: organism-based; conditions: in vivo, 96 h, time 4 day
[12] = Stability in simulated gastric fluid assessed as compound remaining at pH 1.2 measured upto 120 mins by LC-MS analysis; format: ADME; conditions: read-out: Stability
[13] = Stability in simulated intestinal fluid assessed as compound remaining at pH 6.8 measured upto 120 mins by LC-MS analysis; format: ADME; conditions: read-out: Stability
[14] = system: Mus musculus; experiment: Antiinflammatory activity in Swiss albino mouse assessed as inhibition of carrageenan-induced paw edema at 25 mg/kg,po pretreated for 1 hr followed by carrageenan administration measured after 4 hrs relative to control; format: functional; conditions: time 5 hrs
[15] = system: Mus musculus; experiment: Antiinflammatory activity in Swiss albino mouse assessed as inhibition of carrageenan-induced paw edema at 50 mg/kg,po pretreated for 1 hr followed by carrageenan administration measured after 4 hrs relative to control; format: functional; conditions: time 5 hrs
[16] = system: Mus musculus; experiment: Antiinflammatory activity in Swiss albino mouse assessed as inhibition of carrageenan-induced paw edema at 100 mg/kg,po pretreated for 1 hr followed by carrageenan administration measured after 4 hrs relative to control; format: functional; conditions: time 5 hrs
[17] = system: Mus musculus; experiment: Antiinflammatory activity in Swiss albino mouse assessed as inhibition of carrageenan-induced paw edema at 25 mg/kg,po pretreated for 1 hr followed by carrageenan administration measured after 6 hrs relative to control; format: functional; conditions: time 7 hrs
[18] = system: Mus musculus; experiment: Antiinflammatory activity in Swiss albino mouse assessed as inhibition of carrageenan-induced paw edema at 50 mg/kg,po pretreated for 1 hr followed by carrageenan administration measured after 6 hrs relative to control; format: functional; conditions: time 7 hrs
[19] = system: Mus musculus; experiment: Antiinflammatory activity in Swiss albino mouse assessed as inhibition of carrageenan-induced paw edema at 100 mg/kg,po pretreated for 1 hr followed by carrageenan administration measured after 6 hrs relative to control; format: functional; conditions: time 7 hrs
[20] = system: THP-1; experiment: Downregulation of LPS-induced ERK1/2 phosphorylation in human THP-1 cells at 10 uM incubated for 60 mins followed by LPS treatment 90 mins by […]; format: functional, cell-based; conditions: time 150.0 min
[21] = system: THP-1; experiment: Downregulation of LPS-induced JNK1/2 phosphorylation in human THP-1 cells at 10 uM incubated for 60 mins followed by LPS treatment 90 mins by […]; format: functional, cell-based; conditions: time 150.0 min
[22] = Stability in simulated physiological fluid assessed as compound remaining at pH 7.4 measured upto 120 mins by LC-MS analysis; format: physicochemical; conditions: read-out: Stability
[23] = Stability in mouse plasma assessed as compound remaining at 10 uM measured upto 120 mins by LC-MS analysis; format: ADME, cell-free; conditions: read-out: Stability
[24] = Cmax in fasted Swiss mouse at 50 mg/kg, po measured upto 48 hrs by LC-MS/MS analysis; format: ADME, organism-based; design: time < 48 hrs, dose 50 mg/kg, route po; conditions: in vivo
[25] = Tmax in fasted Swiss mouse at 50 mg/kg, po measured upto 48 hrs by LC-MS/MS analysis; format: ADME, organism-based; conditions: in vivo
[26] = AUC in fasted Swiss mouse at 50 mg/kg, po measured upto 48 hrs by LC-MS/MS analysis; format: ADME, organism-based; design: time < 48 hrs, dose 50 mg/kg, route po; conditions: in vivo
[27] = Half life in fasted Swiss mouse at 50 mg/kg, po measured upto 48 hrs by LC-MS/MS analysis; format: ADME, organism-based; conditions: in vivo
[28] = Clearance in fasted Swiss mouse at 50 mg/kg, po measured upto 48 hrs by LC-MS/MS analysis; format: ADME, organism-based; conditions: in vivo
[29] = Volume of distribution in fasted Swiss mouse at 50 mg/kg, po measured upto 48 hrs by LC-MS/MS analysis; format: ADME, organism-based; conditions: in vivo
[30] = MRT in fasted Swiss mouse at 50 mg/kg, po measured upto 48 hrs by LC-MS/MS analysis; format: ADME, organism-based; conditions: in vivo

For `CC(C)Cc1ccc(C(C)C(=O)O)cc1` (stereo unspecified) [IBUPROFEN], the inhibition in vivo at 200 mg/kg [1] was 78% and the inhibition in vivo at 200 mg/kg [2] was 72%.
With `Cc1c(C(=O)Nc2ccccc2)c(-c2ccc(F)cc2)c(-c2ccc(F)cc2)n1CCC1=CC(=O)OC1O` (stereo unspecified) the pIC50 [3] was < 5.30, the Activity [4] was 12.55% and the “fold change (FC)” value [5] was 9.7. The Activity [6] was “Active”.
With `Cc1ccc(-c2c(-c3ccccc3)c(C(=O)Nc3ccccc3)c(C)n2CC2=CC(=O)OC2O)cc1` (stereo unspecified) the pIC50 [3] was 5.88, the Activity [4] was 84% and the “fold change (FC)” value [5] was 12.5. For the same compound, the Activity [6] was “Active”.
For `Cc1c(C(=O)Nc2ccccc2)c(-c2ccc(F)cc2)c(-c2ccc(F)cc2)n1CC1=CC(=O)OC1O` (stereo unspecified), the pIC50 [3] was 5.34, the Activity [4] was 32.69% and the “fold change (FC)” value [5] was 9. The Activity [6] was “Active”.
In the case of `COc1ccc(-c2c(C(=O)Nc3ccccc3)c(C)n(CCC3=CC(=O)OC3O)c2-c2ccc(OC)cc2)cc1` (stereo unspecified), the pIC50 [3] was 5.83, the Activity [4] was 85.2% and the “fold change (FC)” value [5] was 8.6. For the same compound, the Activity [6] was “Active”.
With `Cc1ccc(-c2c(-c3ccccc3)c(C(=O)Nc3ccccc3)c(C)n2CCC2=CC(=O)OC2O)cc1` (stereo unspecified) the pIC50 [3] was 6.22, the pIC50 [7] was 5.41 and the CC50 at 72 h [8] was > 200000 nM. The Activity [9] was 34.6%, the Activity [10] was 80.68% and the MST [11] was 14.6 days. For the same compound, the Activity [4] was 46.46%, the “fold change (FC)” value [5] was 13.1 and the Activity [6] was “Active”.
With `Cc1c(C(=O)Nc2ccccc2)c(-c2ccccc2)c(-c2ccc(Cl)cc2)n1CC1=CC(=O)OC1O` (stereo unspecified) the pIC50 [3] was 5.87, the Activity [4] was 88.38% and the “fold change (FC)” value [5] was 12.1. The Activity [6] was “Active”.
With `Cc1c(C(=O)Nc2ccccc2)c(-c2ccccc2)c(-c2ccc(C(C)C)cc2)n1CCC1=CC(=O)OC1O` (stereo unspecified) the pIC50 [3] was 6.01, the pIC50 [7] was 5.38 and the CC50 at 72 h [8] was 138000 nM. It also gave an Activity [9] of 69.4%, an Activity [10] of 46.4% and an MST [11] of 12.2 days. For the same compound, the Activity [4] was 92.51%, the “fold change (FC)” value [5] was 7.4 and the Activity [6] was “Active”. It also gave a remaining at 2 h [12] of 89.7%, a remaining at 2 h [13] of 89.9% and an inhibition in vivo at 25 mg/kg [14] of 49%. For the same compound, the inhibition in vivo at 50 mg/kg [15] was 60%, the inhibition in vivo at 100 mg/kg [16] was 67% and the inhibition in vivo at 25 mg/kg [17] was 43%. For the same compound, the inhibition in vivo at 50 mg/kg [18] was 58%, the inhibition in vivo at 100 mg/kg [19] was 62% and the Activity [20] was “Active”. The Activity [21] was “Active”, the remaining at 2 h [22] was 89.8% and the remaining at 2 h, 10 µM [23] was 81.8%. It also gave a Cmax [24] of 369 ng/mL, a Tmax [25] of 15 min and an AUC at 48 h [26] of 178 ng·h/mL. The half-life [27] was 75 min, the CL/F [28] was 292 L/h/kg and the Vd [29] was 541.85 L/kg. For the same compound, the MRT [30] was 58.8 min.
With `CCc1ccc(-c2c(-c3ccccc3)c(C(=O)Nc3ccccc3)c(C)n2CCC2=CC(=O)OC2O)cc1` (stereo unspecified) the pIC50 [3] was 5.81, the Activity [4] was 89.93% and the “fold change (FC)” value [5] was 7.8. For the same compound, the Activity [6] was “Active”.
For `O=C1OC(O)C(Cl)=C1Cl` (stereo unspecified) [MUCOCHLORIC ACID], the pIC50 [3] was 5.40 and the pIC50 [7] was < 5.30.
In the case of `Cc1c(C(=O)Nc2ccccc2)c(-c2ccccc2)c(-c2ccc(Cl)cc2)n1CCC1=CC(=O)OC1O` (stereo unspecified), the pIC50 [3] was 5.66, the Activity [4] was 35.92% and the “fold change (FC)” value [5] was 10.4. The Activity [6] was “Active”.
Compound `CCN(CC)CCCC(C)Nc1ccnc2cc(Cl)ccc12` (stereo unspecified) [CHLOROQUINE] has a CC50 at 72 h [8] of 187000 nM.
Compound `CC1=CCC[C@@H]2[C@@](C)(CCC3=CC(=O)O[C@@H]3O)[C@H](C)CC[C@@]12C` has a pIC50 [3] of 5.90 and a pIC50 [7] of 5.54.
With `COc1ccc(-c2c(-c3ccccc3)c(C(=O)Nc3ccccc3)c(C)n2CC2=CC(=O)OC2O)cc1` (stereo unspecified) the pIC50 [3] was 5.47, the Activity [4] was 79.88% and the “fold change (FC)” value [5] was 10.4. For the same compound, the Activity [6] was “Active”.
